Test results reported in PubChem BioAssay (NCI).
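Protocol summary: plate cells (96-well), add compound at 5 concentrations, incubate 48 h, interpolate endpoints linearly. GI50 marks 50% less growth. Definition used: TGI = concentration required for complete inhibition of growth.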

Columns and labels:
Experiment in all cases: NCI tumour cell line growth inhibition, 48 h; in the data active = GI50 below about 0.43 µM; inactive = the rest
786-0 renal = test system: 786-0 renal
A498 renal = test system: A498 renal
A549 NSCLC = test system: A549 NSCLC
ACHN renal = test system: ACHN renal
CAKI-1 renal = test system: CAKI-1 renal
COLO 205 colon = test system: COLO 205 colon
DLD-1 colon = test system: DLD-1 colon
DMS 114 small cell lung = test system: DMS 114 small cell lung
DMS 273 small cell lung = test system: DMS 273 small cell lung
EKVX NSCLC = test system: EKVX NSCLC
HCC-2998 colon = test system: HCC-2998 colon
HCT-116 colon = test system: HCT-116 colon
HCT-15 colon = test system: HCT-15 colon
HOP-18 NSCLC = test system: HOP-18 NSCLC
HOP-62 NSCLC = test system: HOP-62 NSCLC
HOP-92 NSCLC = test system: HOP-92 NSCLC
HT29 colon = test system: HT29 colon
IGROV1 ovarian = test system: IGROV1 ovarian
K-562 leukemia = test system: K-562 leukemia
KM12 colon = test system: KM12 colon
KM20L2 colon = test system: KM20L2 colon
LOX IMVI melanoma = test system: LOX IMVI melanoma
LXFL 529 NSCLC = test system: LXFL 529 NSCLC
M14 melanoma = test system: M14 melanoma
M19-MEL melanoma = test system: M19-MEL melanoma
MALME-3M melanoma = test system: MALME-3M melanoma
MOLT-4 leukemia = test system: MOLT-4 leukemia
NCI-H226 lung = test system: NCI-H226 lung
NCI-H23 lung = test system: NCI-H23 lung
NCI-H460 lung = test system: NCI-H460 lung
NCI-H522 lung = test system: NCI-H522 lung
OVCAR-3 ovarian = test system: OVCAR-3 ovarian
OVCAR-4 ovarian = test system: OVCAR-4 ovarian
OVCAR-5 ovarian = test system: OVCAR-5 ovarian
OVCAR-8 ovarian = test system: OVCAR-8 ovarian
RPMI-8226 leukemia = test system: RPMI-8226 leukemia
RXF 393 renal = test system: RXF 393 renal
RXF-631 renal = test system: RXF-631 renal
SF-268 CNS = test system: SF-268 CNS
SF-295 CNS = test system: SF-295 CNS
SF-539 CNS = test system: SF-539 CNS
SK-MEL-2 melanoma = test system: SK-MEL-2 melanoma
SK-MEL-28 melanoma = test system: SK-MEL-28 melanoma
SK-MEL-5 melanoma = test system: SK-MEL-5 melanoma
SK-OV-3 ovarian = test system: SK-OV-3 ovarian
SNB-19 CNS = test system: SNB-19 CNS
SNB-75 CNS = test system: SNB-75 CNS
SNB-78 CNS = test system: SNB-78 CNS
SW-620 colon = test system: SW-620 colon
TK-10 renal = test system: TK-10 renal
U251 CNS = test system: U251 CNS
UACC-257 melanoma = test system: UACC-257 melanoma
UACC-62 melanoma = test system: UACC-62 melanoma
UO-31 renal = test system: UO-31 renal
XF 498 CNS = test system: XF 498 CNS
CCRF-CEM leukemia = test system: CCRF-CEM leukemia
HL-60(TB) leukemia = test system: HL-60(TB) leukemia
SN12C renal = test system: SN12C renal
SR leukemia = test system: SR leukemia

COc1ccc(C2C3C(=O)C=CC(=O)C3[C@@H]2C)cc1OC (some centres undefined)
91900 nM: TGI (MOLT-4 leukemia)
63100 nM: TGI (RPMI-8226 leukemia)
62400 nM: TGI (HCT-15 colon)
33400 nM: TGI (NCI-H522 lung)
> 100000 nM: TGI (786-0 renal) | TGI (A498 renal) | TGI (A549 NSCLC) | TGI (ACHN renal) | TGI (CAKI-1 renal) | TGI (COLO 205 colon) | TGI (DLD-1 colon) | TGI (DMS 114 small cell lung) | TGI (DMS 273 small cell lung) | TGI (EKVX NSCLC) | TGI (HCC-2998 colon) | TGI (HCT-116 colon) | TGI (HOP-18 NSCLC) | TGI (HOP-62 NSCLC) | TGI (HOP-92 NSCLC) | TGI (HT29 colon) | TGI (IGROV1 ovarian) | TGI (K-562 leukemia) | TGI (KM12 colon) | TGI (KM20L2 colon) | TGI (LOX IMVI melanoma) | TGI (LXFL 529 NSCLC) | TGI (M14 melanoma) | TGI (M19-MEL melanoma) | TGI (MALME-3M melanoma) | TGI (NCI-H226 lung) | TGI (NCI-H23 lung) | TGI (NCI-H460 lung) | TGI (OVCAR-3 ovarian) | TGI (OVCAR-4 ovarian) | TGI (OVCAR-5 ovarian) | TGI (OVCAR-8 ovarian) | TGI (RXF 393 renal) | TGI (RXF-631 renal) | TGI (SF-268 CNS) | TGI (SF-295 CNS) | TGI (SF-539 CNS) | TGI (SK-MEL-2 melanoma) | TGI (SK-MEL-28 melanoma) | TGI (SK-MEL-5 melanoma) | TGI (SK-OV-3 ovarian) | TGI (SNB-19 CNS) | TGI (SNB-75 CNS) | TGI (SNB-78 CNS) | TGI (SW-620 colon) | TGI (TK-10 renal) | TGI (U251 CNS) | TGI (UACC-257 melanoma) | TGI (UACC-62 melanoma) | TGI (UO-31 renal) | TGI (XF 498 CNS)

COc1ccc(C(O)/C(=N\NC(N)=S)c2nc3ccc([N+](=O)[O-])cc3[nH]c2=O)cc1OC (centres undefined)
> 100000 nM: TGI (786-0 renal) | TGI (A498 renal) | TGI (A549 NSCLC) | TGI (ACHN renal) | TGI (CCRF-CEM leukemia) | TGI (COLO 205 colon) | TGI (DLD-1 colon) | TGI (DMS 114 small cell lung) | TGI (DMS 273 small cell lung) | TGI (EKVX NSCLC) | TGI (HCC-2998 colon) | TGI (HL-60(TB) leukemia) | TGI (HOP-18 NSCLC) | TGI (HOP-62 NSCLC) | TGI (HOP-92 NSCLC) | TGI (HT29 colon) | TGI (IGROV1 ovarian) | TGI (K-562 leukemia) | TGI (KM12 colon) | TGI (KM20L2 colon) | TGI (LOX IMVI melanoma) | TGI (LXFL 529 NSCLC) | TGI (M14 melanoma) | TGI (M19-MEL melanoma) | TGI (MALME-3M melanoma) | TGI (MOLT-4 leukemia) | TGI (NCI-H226 lung) | TGI (NCI-H23 lung) | TGI (NCI-H460 lung) | TGI (NCI-H522 lung) | TGI (OVCAR-4 ovarian) | TGI (OVCAR-5 ovarian) | TGI (OVCAR-8 ovarian) | TGI (RPMI-8226 leukemia) | TGI (RXF 393 renal) | TGI (RXF-631 renal) | TGI (SF-268 CNS) | TGI (SF-295 CNS) | TGI (SK-MEL-2 melanoma) | TGI (SK-MEL-28 melanoma) | TGI (SK-OV-3 ovarian) | TGI (SNB-75 CNS) | TGI (SW-620 colon) | TGI (TK-10 renal) | TGI (U251 CNS) | TGI (UACC-257 melanoma) | TGI (UACC-62 melanoma) | TGI (UO-31 renal) | TGI (XF 498 CNS)

CCC[CH2][Sn]([CH2]CCC)([O]C(=O)c1cc(F)cc(F)c1)[O]C(=O)c1cc(F)cc(F)c1
1240 nM: TGI (SK-MEL-2 melanoma)
269 nM: TGI (NCI-H522 lung)
2940 nM: TGI (IGROV1 ovarian)
active: GI50 (DMS 114 small cell lung) 307 nM | GI50 (HCC-2998 colon) 242 nM | GI50 (HL-60(TB) leukemia) 409 nM | GI50 (K-562 leukemia) 228 nM | GI50 (LXFL 529 NSCLC) 171 nM | GI50 (MOLT-4 leukemia) 282 nM | GI50 (NCI-H522 lung) 137 nM | GI50 (RXF 393 renal) 349 nM | GI50 (SK-MEL-2 melanoma) 298 nM | GI50 (SNB-78 CNS) 404 nM
1850 nM: TGI (U251 CNS)
3000 nM: TGI (KM12 colon)
1330 nM: TGI (RXF 393 renal)
1220 nM: TGI (DMS 114 small cell lung)
2620 nM: TGI (SF-295 CNS)
607 nM: TGI (LXFL 529 NSCLC)
2830 nM: TGI (A498 renal) | TGI (SNB-19 CNS)
2750 nM: TGI (UO-31 renal)
1910 nM: TGI (LOX IMVI melanoma)
2650 nM: TGI (NCI-H226 lung) | TGI (OVCAR-3 ovarian)
2550 nM: TGI (EKVX NSCLC)
2090 nM: TGI (SNB-75 CNS)
2960 nM: TGI (OVCAR-5 ovarian)
3280 nM: TGI (XF 498 CNS)
2370 nM: TGI (SK-MEL-28 melanoma)
20400 nM: TGI (A549 NSCLC)
1810 nM: TGI (SW-620 colon)
3440 nM: TGI (KM20L2 colon)
1740 nM: TGI (M19-MEL melanoma)
2410 nM: TGI (HCT-15 colon)
2500 nM: TGI (DMS 273 small cell lung)
1660 nM: TGI (SNB-78 CNS)
3290 nM: TGI (SR leukemia)
2280 nM: TGI (UACC-257 melanoma)
2610 nM: TGI (ACHN renal) | TGI (SK-MEL-5 melanoma) | TGI (TK-10 renal)
2310 nM: TGI (UACC-62 melanoma)
2170 nM: TGI (HL-60(TB) leukemia)
4190 nM: TGI (HOP-62 NSCLC)
2540 nM: TGI (HCT-116 colon)
5450 nM: TGI (SK-OV-3 ovarian)
965 nM: TGI (K-562 leukemia)
2050 nM: TGI (COLO 205 colon)
3020 nM: TGI (NCI-H460 lung)
2340 nM: TGI (SF-268 CNS)
3060 nM: TGI (HT29 colon)
2490 nM: TGI (786-0 renal) | TGI (HOP-92 NSCLC)
2670 nM: TGI (M14 melanoma)
inactive: GI50 (786-0 renal) 1250 nM | GI50 (A498 renal) 1490 nM | GI50 (A549 NSCLC) 7130 nM | GI50 (ACHN renal) 1330 nM | GI50 (COLO 205 colon) 841 nM | GI50 (DLD-1 colon) 727 nM | GI50 (DMS 273 small cell lung) 1250 nM | GI50 (EKVX NSCLC) 1290 nM | GI50 (HCT-116 colon) 1270 nM | GI50 (HCT-15 colon) 1170 nM | GI50 (HOP-18 NSCLC) 1910 nM | GI50 (HOP-62 NSCLC) 2390 nM | GI50 (HOP-92 NSCLC) 1240 nM | GI50 (HT29 colon) 1650 nM | GI50 (IGROV1 ovarian) 1550 nM | GI50 (KM12 colon) 1630 nM | GI50 (KM20L2 colon) 1610 nM | GI50 (LOX IMVI melanoma) 617 nM | GI50 (M14 melanoma) 1360 nM | GI50 (M19-MEL melanoma) 514 nM | GI50 (MALME-3M melanoma) 508 nM | GI50 (NCI-H226 lung) 1340 nM | GI50 (NCI-H23 lung) 700 nM | GI50 (NCI-H460 lung) 1540 nM | GI50 (OVCAR-3 ovarian) 1360 nM | GI50 (OVCAR-4 ovarian) 1600 nM | GI50 (OVCAR-5 ovarian) 1600 nM | GI50 (OVCAR-8 ovarian) 1390 nM | GI50 (SF-268 CNS) 1090 nM | GI50 (SF-295 CNS) 1340 nM | GI50 (SF-539 CNS) 1520 nM | GI50 (SK-MEL-28 melanoma) 1130 nM | GI50 (SK-MEL-5 melanoma) 1340 nM | GI50 (SK-OV-3 ovarian) 2450 nM | GI50 (SN12C renal) 1350 nM | GI50 (SNB-19 CNS) 1500 nM | GI50 (SNB-75 CNS) 820 nM | GI50 (SR leukemia) 459 nM | GI50 (SW-620 colon) 564 nM | GI50 (TK-10 renal) 1300 nM | GI50 (U251 CNS) 615 nM | GI50 (UACC-257 melanoma) 1090 nM | GI50 (UACC-62 melanoma) 1110 nM | GI50 (UO-31 renal) 1440 nM | GI50 (XF 498 CNS) 1870 nM
1750 nM: TGI (MALME-3M melanoma)
3010 nM: TGI (OVCAR-4 ovarian)
3330 nM: TGI (HOP-18 NSCLC)
2890 nM: TGI (SF-539 CNS)
2680 nM: TGI (OVCAR-8 ovarian) | TGI (SN12C renal)
2000 nM: TGI (DLD-1 colon) | TGI (HCC-2998 colon) | TGI (NCI-H23 lung)
1730 nM: TGI (MOLT-4 leukemia)
